Results taken from the supplement of paper PMC13380429.

Assays:
Conditions in all cases: 72 h
Caco-2 [1] = assay: drug sensitivity score (DSS) for viability; higher = more toxic; extreme values may be limits of the assay
Vero E6 [2] = assay: as above
HepG2 [3] = assay: as above
U2OS [4] = assay: as above
Calu-3 [5] = assay: as above
Caco-2 [6] = assay: relative viability EC50 (midpoint between 100% and the lowest measured viability); higher = less toxic
Vero E6 [7] = assay: as above
HepG2 [8] = assay: as above
U2OS [9] = assay: as above
Calu-3 [10] = assay: as above
Caco-2 [11] = assay: cell viability relative to DMSO; higher = less toxic
Vero E6 [12] = assay: as above
HepG2 [13] = assay: as above
U2OS [14] = assay: as above
Calu-3 [15] = assay: as above

Structure (SMILES) | drug sensitivity score (Caco-2 [1]) | drug sensitivity score (Vero E6 [2]) | drug sensitivity score (HepG2 [3]) | drug sensitivity score (U2OS [4]) | drug sensitivity score (Calu-3 [5]) | relative viability EC50 (Caco-2 [6]) | relative viability EC50 (Vero E6 [7]) | relative viability EC50 (HepG2 [8]) | relative viability EC50 (U2OS [9]) | relative viability EC50 (Calu-3 [10]) | cell viability (Caco-2 [11]; 1 nM) | cell viability (Caco-2 [11]; 10 nM) | cell viability (Caco-2 [11]; 100 nM) | cell viability (Caco-2 [11]; 1000 nM) | cell viability (Caco-2 [11]; 10000 nM) | cell viability (Vero E6 [12]; 1 nM) | cell viability (Vero E6 [12]; 10 nM) | cell viability (Vero E6 [12]; 100 nM) | cell viability (Vero E6 [12]; 1000 nM) | cell viability (Vero E6 [12]; 10000 nM) | cell viability (HepG2 [13]; 1 nM) | cell viability (HepG2 [13]; 10 nM) | cell viability (HepG2 [13]; 100 nM) | cell viability (HepG2 [13]; 1000 nM) | cell viability (HepG2 [13]; 10000 nM) | cell viability (U2OS [14]; 1 nM) | cell viability (U2OS [14]; 10 nM) | cell viability (U2OS [14]; 100 nM) | cell viability (U2OS [14]; 1000 nM) | cell viability (U2OS [14]; 10000 nM) | cell viability (Calu-3 [15]; 1 nM) | cell viability (Calu-3 [15]; 10 nM) | cell viability (Calu-3 [15]; 100 nM) | cell viability (Calu-3 [15]; 1000 nM) | cell viability (Calu-3 [15]; 10000 nM)
CC(=O)N1N=C(c2ccc(N)cc2)c2cc3c(cc2C[C@H]1C)OCO3 [talampanel] | 0 | 0 | 0 | 0 | 0 | > 10 µM | > 10 µM | > 10 µM | > 10 µM | > 10 µM | 94.7% | 104% | 94.7% | 96.9% | 98.6% | 94% | 95.3% | 95.9% | 95.5% | 97.4% | 101% | 93.9% | 100% | 107% | 99.7% | 99% | 101% | 96.7% | 95.5% | 97.7% | 98% | 99.6% | 98.2% | 95.6% | 97.3%
CCC[C@H](NC(=O)[C@@H]1[C@H]2CCC[C@H]2CN1C(=O)[C@@H](NC(=O)[C@@H](NC(=O)c1cnccn1)C1CCCCC1)C(C)(C)C)C(=O)C(=O)NC1CC1 [telaprevir] | 0 | 0 | 0 | 0 | 0 | > 10 µM | > 10 µM | > 10 µM | > 10 µM | > 10 µM | 101% | 93.1% | 95.6% | 102% | 91.5% | 100% | 103% | 98.9% | 105% | 99% | 115% | 108% | 98.8% | 107% | 87% | 99.2% | 97.9% | 102% | 98.8% | 93.9% | 106% | 88.1% | 101% | 93.6% | 97.6%
CC(=O)CC/C=C(\C)CC/C=C(\C)CC/C=C(\C)CCC=C(C)C [teprenone] | 0 | 0 | 0 | 0 | 0 | > 10 µM | > 10 µM | > 10 µM | > 10 µM | > 10 µM | 96.9% | 88.2% | 93.7% | 98.6% | 116% | 94.8% | 103% | 92.6% | 103% | 100% | 96.3% | 102% | 97.4% | 92.3% | 101% | 102% | 95.4% | 103% | 96.9% | 99.2% | 92.2% | 88.5% | 99.7% | 95.5% | 94.9%
CCO[C@@H](Cc1ccc(OCCc2ccc(OS(C)(=O)=O)cc2)cc1)C(=O)O [tesaglitazar] | 0 | 2.7 | 0 | 0 | 0 | > 10 µM | > 10 µM | > 10 µM | > 10 µM | > 10 µM | 101% | 86% | 94.1% | 100% | 99.2% | 99.2% | 99.5% | 96% | 81.9% | 82.6% | 101% | 96.7% | 104% | 91.1% | 98.1% | 100% | 95.9% | 95.7% | 101% | 105% | 105% | 104% | 97.9% | 113% | 110%
CC1(C)O[C@@H]2[C@@H](CO[C@@]3(COS(N)(=O)=O)OC(C)(C)O[C@@H]23)O1 [topiramate] | 0 | 0 | 0 | 0 | 0 | > 10 µM | > 10 µM | > 10 µM | > 10 µM | > 10 µM | 93.2% | 83.1% | 92.2% | 112% | 98.7% | 89.5% | 98.3% | 95.6% | 97.7% | 107% | 108% | 96.9% | 91.8% | 95.9% | 94.9% | 98.7% | 94.5% | 98.1% | 105% | 108% | 110% | 96.6% | 94.8% | 95.2% | 103%
CCOC(=O)[C@H](CCc1ccccc1)N[C@@H](C)C(=O)N1[C@H](C(=O)O)C[C@H]2CCCC[C@@H]21 [trandolapril] | 0.4 | 0 | 0 | 0 | 0 | > 10 µM | > 10 µM | > 10 µM | > 10 µM | > 10 µM | 93.1% | 86% | 83.2% | 89.6% | 100% | 91.6% | 97.3% | 89.6% | 96.1% | 107% | 90.7% | 104% | 96.4% | 100% | 108% | 97.6% | 92.6% | 98.5% | 96% | 99.4% | 106% | 98% | 102% | 108% | 102%
